Source: ChEMBL document CHEMBL6127111, “First-in-Class Small Molecule Degrader of Pregnane X Receptor Enhances Chemotherapy Efficacy” (J Med Chem, 2024)
Activity calls are given as the source filed them. No cut-off for these calls is given here.

Columns and labels:
[1] = target: T1, von Hippel-Lindau disease tumor suppressor/Nuclear receptor subfamily 1 group I member 2 (Homo sapiens, UniProt O75469+P40337); assay: PROTAC activity at PXR/VHL in human SNU-C4 HiBiT-PXR KI cell assessed as inhibition of LBD-VCB complex formation at 41.2 nM incubated for 24 hrs by TR-FRET assay; format: cell-based; settings: 0.0412 µM
[2] = target: von Hippel-Lindau disease tumor suppressor/Vitamin D3 receptor (Homo sapiens) (UniProt P11473+P40337); assay: PROTAC activity at VDR/VHL in HEK293T cells assessed as VDR degradation at 0.001 to 100 uM incubated for 24 hrs; format: cell-based; settings: dose 0.001-100 µM
[3] = target: T1, von Hippel-Lindau disease tumor suppressor/Nuclear receptor subfamily 1 group I member 2; assay: PROTAC activity at PXR/VHL in human SNU-C4 HiBiT-PXR KI cell assessed as PXR degradation at 1 uM incubated for 8 hrs in presence of VH032 by Western blot analysis; format: cell-based
[4] = target: T2, Nuclear receptor subfamily 1 group I member 2 (Homo sapiens, UniProt O75469); assay: Inhibition of PXR activation in human HepG2 cells transfected with CYP3A4 incubated for 24 hrs in presence of paclitaxel; format: cell-based; settings: hepg2, 24 h
T2 sequence (O75469 whole entry): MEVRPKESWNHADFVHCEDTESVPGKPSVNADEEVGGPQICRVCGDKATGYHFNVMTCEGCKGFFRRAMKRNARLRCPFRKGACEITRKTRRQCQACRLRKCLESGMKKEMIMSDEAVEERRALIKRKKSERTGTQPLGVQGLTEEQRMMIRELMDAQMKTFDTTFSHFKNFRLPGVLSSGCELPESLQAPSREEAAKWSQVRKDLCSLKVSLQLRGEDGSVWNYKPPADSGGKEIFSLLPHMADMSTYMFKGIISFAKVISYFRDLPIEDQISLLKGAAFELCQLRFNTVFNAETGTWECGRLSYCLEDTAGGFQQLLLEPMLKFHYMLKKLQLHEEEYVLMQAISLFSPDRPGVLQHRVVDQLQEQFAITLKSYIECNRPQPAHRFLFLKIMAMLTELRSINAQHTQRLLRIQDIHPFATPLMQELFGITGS

[5] = target: T1, von Hippel-Lindau disease tumor suppressor/Nuclear receptor subfamily 1 group I member 2; assay: PROTAC activity at PXR/VHL in human SNU-C4 HiBiT-PXR KI cell assessed as PXR degradation at 1 uM incubated for 8 hrs in presence of MLN4924 by Western blot analysis; format: cell-based
[6] = target: von Hippel-Lindau disease tumor suppressor/Bile acid receptor (Homo sapiens) (UniProt Q96RI1+P40337); assay: PROTAC activity at FXR/VHL in HEK293T cells assessed as FXR degradation at 0.001 to 100 uM incubated for 24 hrs; format: cell-based; settings: dose 0.001-100 µM
SNU-C4 [7] = assay: Cytotoxicity against human SNU-C4 cells assessed as cell viability incubated for 72 hrs in presence of paclitaxel; format: functional
[8] = Cytotoxicity against human SNU-C4 HiBiT-PXR KI cell assessed as cell viability incubated for 24 hrs by celltiter-glo luminescent assay; format: functional
[9] = Cytotoxicity against human SNU-C4 HiBiT-PXR KI cell assessed as cell viability at 30 uM incubated for 72 hrs by celltiter-glo luminescent assay relative to control; format: functional; settings: read-out: Activity
[10] = target: T1, von Hippel-Lindau disease tumor suppressor/Nuclear receptor subfamily 1 group I member 2; assay: PROTAC activity at PXR/VHL in human SNU-C4 HiBiT-PXR KI cell assessed as PXR degradation at 1 uM incubated for 8 hrs in presence of methyl (S)-3-(1-(2,5-dimethoxyphenyl)-5-methyl-1H-1,2,3-triazole-4-carboxamido)-4-(hexan-3-yloxy)benzoate by Western blot analysis; format: cell-based
[11] = target: T1, von Hippel-Lindau disease tumor suppressor/Nuclear receptor subfamily 1 group I member 2; assay: PROTAC activity at N-terminal PXR/VHL in human SNU-C4 HiBiT-PXR KI cell assessed as PXR degradation upto 10 uM incubated at 24 hrs by Western blot analysis; format: cell-based
[12] = Cytotoxicity against human SNU-C4 HiBiT-PXR KI cell assessed as cell viability at 30 uM incubated for 24 hrs by celltiter-glo luminescent assay relative to control; format: functional; settings: read-out: Activity
[13] = target: von Hippel-Lindau disease tumor suppressor/Nuclear receptor subfamily 1 group I member 3 (Homo sapiens, UniProt Q14994+P40337); assay: PROTAC activity at CAR/VHL in HEK293T cells assessed as CAR degradation at 0.001 to 100 uM incubated for 24 hrs; format: cell-based; settings: dose 0.001-100 µM
[14] = target: T1, von Hippel-Lindau disease tumor suppressor/Nuclear receptor subfamily 1 group I member 2; assay: PROTAC activity at PXR/VHL in human SNU-C4 HiBiT-PXR KI cell assessed as PXR degradation at 1 uM incubated for 8 hrs in presence of MG132 by Western blot analysis; format: cell-based
[15] = target: T2, Nuclear receptor subfamily 1 group I member 2; assay: Inhibition of PXR activation in human HepG2 cells transfected with CYP3A4 incubated for 24 hrs in presence of T0901317; format: cell-based; settings: hepg2, 24 h
HepG2 = assay: Reduction in basal PXR activity on CYP3A4 promoter in human HepG2 cells at 10 uM in absence of PXR agonist; format: functional, cell-based
[16] = target: T2, Nuclear receptor subfamily 1 group I member 2; assay: Inhibition of PXR activation in human HepG2 cells transfected with CYP3A4 incubated for 24 hrs in presence of rifampicin; format: cell-based; settings: hepg2, 24 h
SNU-C4 [17] = assay: Effect on PXR mRNA level in human SNU-C4 cells at 10 uM incubated for 24 hrs in presence of paclitaxel by RT-qPCR analysis; format: functional, cell-based
[18] = target: T2, Nuclear receptor subfamily 1 group I member 2; assay: Inhibition of PXR activation in human SNU-C4 cells transfected with CYP3A4 at 10 uM incubated for 24 hrs in presence of paclitaxel; format: cell-based; settings: snu-c4, 24 h
[19] = target: von Hippel-Lindau disease tumor suppressor/Oxysterols receptor LXR-alpha (Homo sapiens) (UniProt Q13133+P40337); assay: PROTAC activity at LXRalpha/VHL in HEK293T cells assessed as LXRalpha degradation at 0.001 to 100 uM incubated for 24 hrs; format: cell-based; settings: dose 0.001-100 µM
[20] = Cytotoxicity against human SNU-C4 HiBiT-PXR KI cell assessed as cell viability incubated for 72 hrs by celltiter-glo luminescent assay; format: functional
[21] = target: von Hippel-Lindau disease tumor suppressor/Oxysterols receptor LXR-beta (Homo sapiens) (UniProt P55055+P40337); assay: PROTAC activity at LXRbeta/VHL in HEK293T cells assessed as LXRbeta degradation at 0.001 to 100 uM incubated for 24 hrs; format: cell-based; settings: dose 0.001-100 µM
[22] = target: T1, von Hippel-Lindau disease tumor suppressor/Nuclear receptor subfamily 1 group I member 2; assay: PROTAC activity at […] PXR/VHL in human SNU-C4 HiBiT-PXR KI cell assessed as PXR degradation incubated at 24 hrs by Western blot analysis; format: cell-based

T1 sequence (P40337 whole entry, one chain of several, the tested form may be a part): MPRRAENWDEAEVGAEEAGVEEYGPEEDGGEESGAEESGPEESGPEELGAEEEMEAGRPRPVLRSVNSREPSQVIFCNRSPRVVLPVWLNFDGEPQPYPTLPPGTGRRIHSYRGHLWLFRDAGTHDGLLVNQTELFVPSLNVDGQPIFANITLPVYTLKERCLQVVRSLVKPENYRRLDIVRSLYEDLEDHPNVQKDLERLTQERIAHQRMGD
Chain of von Hippel-Lindau disease tumor suppressor/Vitamin D3 receptor (Homo sapiens) (P11473 whole entry, looked up): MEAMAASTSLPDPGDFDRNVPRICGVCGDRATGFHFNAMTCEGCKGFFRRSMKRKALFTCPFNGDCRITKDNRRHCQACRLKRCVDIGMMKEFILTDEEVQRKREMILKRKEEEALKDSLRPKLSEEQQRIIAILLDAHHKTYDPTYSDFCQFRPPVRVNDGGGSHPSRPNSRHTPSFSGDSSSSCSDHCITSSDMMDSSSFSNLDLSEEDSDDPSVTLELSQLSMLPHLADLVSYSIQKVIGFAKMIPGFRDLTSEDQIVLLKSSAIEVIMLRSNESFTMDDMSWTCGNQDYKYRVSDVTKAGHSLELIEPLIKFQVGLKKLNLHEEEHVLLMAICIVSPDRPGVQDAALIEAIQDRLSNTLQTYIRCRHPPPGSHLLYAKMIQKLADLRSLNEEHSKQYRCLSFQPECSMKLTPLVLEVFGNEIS
Chain of von Hippel-Lindau disease tumor suppressor/Vitamin D3 receptor (Homo sapiens) (P40337 whole entry, looked up): as the sequence (P40337 whole entry, one chain of several, the tested form may be a part) above
Chain of von Hippel-Lindau disease tumor suppressor/Nuclear receptor subfamily 1 group I member 3 (Q14994 whole entry): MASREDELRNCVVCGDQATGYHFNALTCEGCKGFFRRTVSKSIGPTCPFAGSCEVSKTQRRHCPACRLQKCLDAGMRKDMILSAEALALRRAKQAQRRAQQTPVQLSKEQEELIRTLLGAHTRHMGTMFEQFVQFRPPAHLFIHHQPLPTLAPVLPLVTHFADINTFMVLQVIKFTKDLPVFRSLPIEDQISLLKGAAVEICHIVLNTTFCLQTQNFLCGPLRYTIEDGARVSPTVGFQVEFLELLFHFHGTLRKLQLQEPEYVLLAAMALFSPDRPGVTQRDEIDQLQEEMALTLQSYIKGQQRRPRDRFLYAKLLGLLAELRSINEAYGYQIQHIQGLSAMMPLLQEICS
Chain of von Hippel-Lindau disease tumor suppressor/Nuclear receptor subfamily 1 group I member 3 (P40337 whole entry): as the sequence (P40337 whole entry, one chain of several, the tested form may be a part) above
Chain of von Hippel-Lindau disease tumor suppressor/Oxysterols receptor LXR-alpha (Homo sapiens) (P40337 whole entry, looked up): as the sequence (P40337 whole entry, one chain of several, the tested form may be a part) above
Chain of von Hippel-Lindau disease tumor suppressor/Oxysterols receptor LXR-alpha (Homo sapiens) (Q13133 whole entry, looked up): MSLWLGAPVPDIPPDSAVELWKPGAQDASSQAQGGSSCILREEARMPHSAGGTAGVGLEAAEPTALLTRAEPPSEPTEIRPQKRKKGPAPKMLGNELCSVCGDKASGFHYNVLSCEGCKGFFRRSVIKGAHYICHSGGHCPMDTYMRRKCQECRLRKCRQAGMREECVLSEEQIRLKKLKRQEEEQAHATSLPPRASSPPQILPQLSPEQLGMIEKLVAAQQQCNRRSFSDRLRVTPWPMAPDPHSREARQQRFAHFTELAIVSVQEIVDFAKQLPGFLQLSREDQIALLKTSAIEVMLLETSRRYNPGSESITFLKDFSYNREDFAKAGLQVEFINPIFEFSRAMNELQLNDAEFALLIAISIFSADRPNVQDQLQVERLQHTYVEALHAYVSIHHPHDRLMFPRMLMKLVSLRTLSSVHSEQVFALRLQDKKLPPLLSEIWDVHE
Chain of von Hippel-Lindau disease tumor suppressor/Oxysterols receptor LXR-beta (Homo sapiens) (P40337 whole entry, looked up): as the sequence (P40337 whole entry, one chain of several, the tested form may be a part) above
Chain of von Hippel-Lindau disease tumor suppressor/Oxysterols receptor LXR-beta (Homo sapiens) (P55055 whole entry, looked up): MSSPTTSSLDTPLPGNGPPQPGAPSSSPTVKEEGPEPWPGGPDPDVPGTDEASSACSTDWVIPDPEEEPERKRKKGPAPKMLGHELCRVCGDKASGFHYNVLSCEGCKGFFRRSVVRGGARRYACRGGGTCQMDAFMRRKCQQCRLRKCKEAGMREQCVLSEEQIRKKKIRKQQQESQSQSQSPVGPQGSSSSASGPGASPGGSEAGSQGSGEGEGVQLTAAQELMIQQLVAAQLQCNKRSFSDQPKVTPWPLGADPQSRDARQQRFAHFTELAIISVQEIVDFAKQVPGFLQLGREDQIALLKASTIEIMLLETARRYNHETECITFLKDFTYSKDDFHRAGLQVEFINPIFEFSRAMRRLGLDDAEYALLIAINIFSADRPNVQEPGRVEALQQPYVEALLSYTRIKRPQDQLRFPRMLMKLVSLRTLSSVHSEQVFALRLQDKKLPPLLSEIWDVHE
Chain of von Hippel-Lindau disease tumor suppressor/Bile acid receptor (Homo sapiens) (P40337 whole entry, looked up): as the sequence (P40337 whole entry, one chain of several, the tested form may be a part) above
Chain of von Hippel-Lindau disease tumor suppressor/Bile acid receptor (Homo sapiens) (Q96RI1 whole entry, looked up): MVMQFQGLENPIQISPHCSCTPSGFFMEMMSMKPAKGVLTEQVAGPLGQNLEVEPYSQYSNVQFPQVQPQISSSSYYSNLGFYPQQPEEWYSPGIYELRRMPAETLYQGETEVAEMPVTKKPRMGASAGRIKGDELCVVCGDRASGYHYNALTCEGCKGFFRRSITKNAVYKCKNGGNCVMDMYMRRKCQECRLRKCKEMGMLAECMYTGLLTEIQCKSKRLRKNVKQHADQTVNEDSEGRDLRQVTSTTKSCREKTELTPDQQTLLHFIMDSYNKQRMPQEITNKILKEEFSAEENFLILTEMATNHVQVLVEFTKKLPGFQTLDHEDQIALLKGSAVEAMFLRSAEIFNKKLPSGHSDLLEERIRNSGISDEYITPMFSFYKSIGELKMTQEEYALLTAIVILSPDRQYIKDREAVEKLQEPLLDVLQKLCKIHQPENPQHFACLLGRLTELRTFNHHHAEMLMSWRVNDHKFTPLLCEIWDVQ

SMILES	Activity [2]	Activity [3]	Activity [5]	Activity [6]	CC50 [8]	viability at 30 µM [9]	Activity [10]	Activity [11]	viability at 30 µM [12]	Activity [13]	Activity [14]	Activity [19]	CC50 [20]	Activity [21]	further results
CC(=O)N[C@H](C(=O)N1C[C@@H](O)C[C@H]1C(=O)NCc1ccc(-c2scnc2C)cc1)C(C)(C)C															Activity [1]: Not Active
CCC[C@H](CC)Oc1ccc(C(=O)OC)cc1NC(=O)c1nnn(-c2cc(OC)c(OCCCCCCOCCOCC(=O)N[C@H](C(=O)N3C[C@H](O)C[C@H]3C(=O)NCc3ccc(-c4scnc4C)cc3)C(C)(C)C)cc2OC)c1C	inactive	Not Active	Not Active	inactive	> 30 µM	105%	Not Active	Active	102%	Not Active	Not Active	inactive	> 30 µM	inactive	inhibition (INH) [4]: Active; CC50 (SNU-C4 [7]): 9.53 µM; inhibition (INH) [15]: Active; Activity (HepG2): Active; inhibition (INH) [16]: Active; Activity (SNU-C4 [17]): inactive; inhibition (INH) [18]: Active
CCC[C@H](CC)Oc1ccc(C(C)(C)C)cc1NC(=O)c1nnn(-c2cc(OC)c(OCCCCCCOCCOCC(=O)N[C@H](C(=O)N3C[C@H](O)C[C@H]3C(=O)NCc3ccc(-c4scnc4C)cc3)C(C)(C)C)cc2OC)c1C	inactive	Not Active	Not Active	inactive	> 30 µM	99.5%	Not Active	Active	97.4%	Not Active	Not Active	inactive	> 30 µM	inactive	DC50 [22]: 0.0531 µM
